Results as given in patent US8293979B2, “Weed controller metabolism proteins, genes, thereof and use of the same” (Sumitomo Chemical Company, Limited, priority 2001, dated 2012).

How the values were obtained:
[1] = system: leaf pieces derived from the tobacco to which the present invention DNA (A1) was introduced; test: Herbicidal damage of tobacco leaf pieces on MS agar medium containing compound (II); format: cell-based, Nicotiana tabacum strain SR1; conditions: MS agar medium containing 0.1 mg/L of compound (II), in the light at room temperature, 7th day of culturing
Experimental: (§1) Then, according to the method described in Manual for Gene Manipulation of Plant (by Hirofumi UCHIMIYA, Kodan-sha Scientific, 1992), the gene was introduced into tobacco. Agrobacterium strains bearing the above plasmids were each cultured at 28° C. overnight in LB medium containing 300 mg/L streptomycin, 100 mg/L rifampicin and 25 mg/L kanamycin, and then leaf pieces of tobacco (Nicotiana tabacum strain SR1) cultured sterilely were dipped in the liquid culture medium. The leaf pieces were planted and cultured at room temperature for 2 days in the light in MS agar medium (MS inorganic salts, MS vitamins, 3% sucrose and 0.8% agar; described in Murashige T. and Skoog F., Physiol. Plant. (1962) 15, p 473) containing 0.1 mg/L of naphthalene acetic acid and 1.0 mg/L of benzyl aminopurine. Then, the leaf pieces were washed with sterilized water and cultured for 7 days on MS agar medium containing 0.1 mg/L of naphthalene acetic acid, 1.0 mg/L of benzyl aminopurine and 500 mg/L of cefotaxime. Next, the leaf pieces were transplanted and cultured in MS agar medium containing 0.1 mg/L of naphthalene acetic acid, 1.0 mg/L of benzyl aminopurine, 500 mg/L of cefotaxime and 100 mg/L of kanamycin. The culture was conducted continuously for 4 months while transplanting the leaf pieces to fresh medium of the same composition at intervals of 4 weeks. […]

[2] = system: leaf pieces derived from the tobacco to which the control DNA (T-DNA region of plasmid pBI121S) was introduced; test: as above; format: cell-based, Nicotiana tabacum strain SR1; conditions: MS agar medium containing 0.1 mg/L of compound (II), in the light at room temperature, 7th day of culturing
Experimental: as §1

[3] = system: Ivyleaf morningglory; test: Herbicidal activity test, soil surface treatment; format: in vivo, Ipomoea hederacea; design: key: 0: situations in which the condition of sprouting or vegetation at the time of examination of the plant utilized for the test was compared with and showed totally or substantially no difference with that of the untreated application; 10: situations in which the plant completely withered or the sprouting or vegetation was completely suppressed; conditions: 500 g/ha, sprayed onto the surface of the soil after seeding, investigated after 19 days in a greenhouse
Experimental: Soil was packed into a round plastic pot having a diameter of 10 cm and depth of 10 cm. Barnyardgrass, Blackgrass, Ivyleaf morningglory were seeded. Five (5) parts of the test compound, 6 parts of sorpol3005X (Toho Chemical Company) and 89 parts of xylene were well mixed to produce an emulsion. A certain amount thereof was diluted with water containing 0.1% (v/v) of a sticking agent at a proportion of 1000 L for 1 hectare and was spread uniformly with a spray-gun onto the surface of the soil. After cultivating the plants for 19 days in a greenhouse, the herbicidal activity was investigated.
In the above Tables 3 and 4, the strength of the herbicidal activity is shown stepwise as 0, 1, 2, 3, 4, 5, 6, 7, 8, 9, and 10.

[4] = system: present invention protein (A22); test: Detection of the ability to convert compound (II) to compound (III), E. coli pKSN1558BF extract; format: in vitro ADME, Streptomyces pallidus IFO 13434T; conditions: 3 ppm of compound (II) labeled with 14C, components A, B, 10 minutes at 30° C.
Experimental: Reaction solutions of 30 μl were prepared and maintained for 10 minutes at 30° C. The reaction solutions consisted of a 0.1M potassium phosphate buffer (pH7.0) containing 3 ppm of compound (II) labeled with ^14C, 2 mM of β-NADPH (hereinafter, referred to as “component A”) (Oriental Yeast Company), 2 mg/ml of a ferredoxin derived from spinach (hereinafter referred to as “component B”) (Sigma Company), 0.1 U/ml of ferredoxin reductase (hereinafter, referred to as “component C”) (Sigma Company) and 23 μl of the supernatant fraction recovered in Example 32(2). Similarly to Example 4(3), the reaction solutions after the maintenance were extracted with ethyl acetate and the extracted layers were TLC analyzed. […] A spot corresponding to compound (III) was detected from the reaction solution containing E. coli pKSN849AF extract. In contrast, such a spot was not detected from the reaction solution containing E. coli pKSN2 extract.
Similarly to Example 32(3), reaction solutions of 30 μl were prepared and maintained for 10 minutes at 30° C. […] The reaction solutions after the maintenance were extracted with ethyl acetate and the extracted layers were TLC analyzed. […] A spot corresponding to compound (III) was detected from the reaction solution containing E. coli pKSN1558BF extract. In contrast, such a spot was not detected from the reaction solution containing E. coli pKSN2 extract.

C[C@@H](Oc1cc(-n2c(=O)cc(C(F)(F)F)n(C)c2=O)c(F)cc1Cl)C(=O)O [compound (II)] was tested. Which “herbicidal damage of the leaf pieces” value [1] did it give?
The value was “grew continuously”.

What about the “herbicidal damage of the leaf pieces” value [2] of the same molecule?
Its value is “turned white and withered”.

What about the “Herbicidal Activity Ivyleaf Morningglory” value [3] of the same molecule?
Its value is 10.

What about the “spot corresponding to compound (III) labeled with 14C (TLC)” value [4] of the same molecule?
The value was “detected”.
